Assay results: patent US20180044738A1, “METHOD OF DIAGNOSING BREAST CANCER, MONITORING TREATMENT OF BREAST CANCER, AND TREATING BREAST CANCER” (University Of Cincinnati, priority 2016, published 2018)
Like-named read-outs stand apart in the source and are kept apart here.

Test system: Xenograft tumors
Text: Xenograft tumors derived from luciferase-expressing MDA-MB-231 and SUM159 cells will be implanted orthotopically in female nude mice. […] Initial dose of the aptamers will follow the previous animal studies (weekly intra-tumoral injection; 2000 pmol each time delivered in 10 sub-injections). The optimal dose will be determined empirically based on the effect on tumor volumes. The lapatinib plus imatinib group will be used to compare the tumor suppression efficacy of drug treatment with the aptamers. […] Tumor volume will be measured weekly with a caliper, and also by an IVIS imaging system (Xenogen) which can reveal potential metastatic sites. Apoptosis will be assessed by TUNEL assay of the tumor tissues; proliferation will be assayed by in vivo BrdU incorporation analysis. Primary tumor with adjacent normal tissues will be examined by hematoxylin/eosin (H&E) staining. Tumor invasion will be assessed based on the extent of infiltration into surrounding tissues, the margins from surrounding tissues, and desomoplastic stromal reaction by smooth muscle actin staining. Human origin of the invasive cells will be confirmed by staining for human cytokeratin.

SMILES | tumor growth (oral gavage, 100 mg/kg of each drug, in a month, preliminary results, data not shown) | tumor growth (mouse, in vivo, po, 100 mg/kg)
CS(=O)(=O)CCNCc1ccc(-c2ccc3ncnc(Nc4ccc(OCc5cccc(F)c5)c(Cl)c4)c3c2)o1 [lapatinib] | not either drug alone | 
Cc1ccc(NC(=O)c2ccc(CN3CCN(C)CC3)cc2)cc1Nc1nccc(-c2cccnc2)n1 [imatinib] |  | not either drug alone
